Consider two compounds from publication PMC11975047, “Antiproliferative effects, mechanism of action and tumor reduction studies in a lung cancer xenograft mouse model of an organometallic gold(I) alkynyl complex” (RSC Medicinal Chemistry, 2025).

Assay [1] deals with T1, thioredoxin reductase (TrxR), rat liver (Rattus norvegicus, UniProt O89049).
T1 construct: gene Txnrd1
Briefly: DTNB reduction assay with purified rat liver TrxR, […] min preincubation, […] nm.

Assay [2] concerns the target T1, thioredoxin reductase (TrxR), rat liver. Put plainly: DTNB reduction assay with purified rat liver TrxR, reference inhibitor.

T1 sequence (O89049 whole entry): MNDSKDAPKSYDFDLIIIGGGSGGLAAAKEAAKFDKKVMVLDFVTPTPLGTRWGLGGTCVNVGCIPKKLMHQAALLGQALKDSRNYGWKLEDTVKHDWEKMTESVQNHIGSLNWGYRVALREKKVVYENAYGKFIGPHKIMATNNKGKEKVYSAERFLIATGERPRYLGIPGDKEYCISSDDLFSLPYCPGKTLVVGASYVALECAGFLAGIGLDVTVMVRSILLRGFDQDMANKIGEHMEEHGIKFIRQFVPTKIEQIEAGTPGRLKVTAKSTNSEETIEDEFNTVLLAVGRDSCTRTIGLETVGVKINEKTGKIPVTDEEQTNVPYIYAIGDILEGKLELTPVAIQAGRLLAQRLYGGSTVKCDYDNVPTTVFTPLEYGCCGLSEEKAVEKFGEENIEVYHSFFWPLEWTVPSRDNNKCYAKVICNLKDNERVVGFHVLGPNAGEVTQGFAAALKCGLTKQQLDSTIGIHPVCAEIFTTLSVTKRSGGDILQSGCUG

Broadly, the IC50 is the point on the concentration scale where inhibition reaches its midpoint. The low end stands for greater potency, the high end for weaker potency. In the case of `CC[P+](CC)(CC)[Au-][C]#Cc1ccc(OC)cc1` [compound 1, complex 1], 0.05 ± 0.01 µM corresponded to half-maximal inhibition in assay [1] (IC50).

`CC[P](CC)(CC)=[Au][S][C@@H]1O[C@H](COC(C)=O)[C@@H](OC(C)=O)[C@H](OC(C)=O)[C@H]1OC(C)=O` [AF, Auranofin] showed a half-inhibitory concentration (IC50) in assay [2] of 0.03 µM.
